Measured values reported in ChEMBL document CHEMBL1157539, “Thousands of chemical starting points for antimalarial lead identification” (Nature, 2010).

test system: Plasmodium falciparum; assay: GSK_TCMDC: Inhibition of Plasmodium falciparum 3D7 in whole erythrocytes, using parasite LDH activity as an index of growth.; format: functional, organism-based; conditions: Plasmodium falciparum, 3D7

Structure (SMILES)	XC50 [nM]
COC(=O)c1cccc(NC(=O)NC2CCN(c3ccnc(Nc4ccc(OC)cc4)n3)C2)c1 (centres undefined)	472
CC(=O)Nc1ccc(OCCCCN(Cc2ccccc2OC(F)(F)F)c2ccc(C(F)(F)F)c(C#N)c2)c(Cl)c1	529
O=C(NCc1cccc(F)c1)Nc1cccc(-c2ccc(-c3nc4cc(C(F)(F)F)ccc4[nH]3)cc2)c1	766
CN(c1ccc(F)cc1)S(=O)(=O)c1ccc(Cl)c(C(=O)Nc2cccc(C#N)c2)c1	699
CC(C)C(NC(=O)Cc1cccc2ccccc12)C(=O)Nc1cccc(C#N)c1 (centres undefined)	656
CCCCCCNC(=O)C1Cc2c([nH]c3ccc(C)cc23)C2(CCN(Cc3ccccc3)CC2)N1 (centres undefined)	982
OC1CCCN(Cc2cccc(-c3ccc(-c4nc5cc(F)ccc5[nH]4)cc3)c2)C1 (centres undefined)	780
O=C(N[C@@H](Cc1ccccc1)C(=O)NC1CCCc2ccccc21)c1ccc(O)c(-c2cccc(C(F)(F)F)c2)c1 (some centres undefined)	1000
CN(C)Cc1c(O)ccc2[nH]c(-c3ccc(F)cc3F)nc12	1300
COc1ccc(-c2cc(C(=O)N[C@@H](Cc3ccccc3)C(=O)NCCN3CCCCC3)ccc2O)cc1	792
CCCOc1ccc(N2C(N)=NC(N)=NC2(C)C)cc1	487
CC(C)(C)Nc1cc(C2CC2)nc(-c2ccccn2)n1	679
CCN(CCCN1CCCCC1)c1cc(C)nc(Nc2cccc(C(F)(F)F)c2C)n1	609
Cc1cc(N/N=C/c2ccccc2[N+](=O)[O-])c2cccc(C)c2n1	548
CC(C)(C)NCCN(Cc1ccc(-c2ccc(C(F)(F)F)cc2)cc1)C(=O)Cn1c(SCc2ccc(F)cc2)nc(=O)c2c1CCC2	860
Cc1cc(C(=O)CN2C(=O)NC3(CCCc4ccccc43)C2=O)c(C)n1Cc1ccc(F)cc1 (centres undefined)	970
Cc1ccc2[nH]c(C3CCCNC3)c(-c3ccncc3)c2c1 (centres undefined)	1230
Cc1[nH]c(C)c(-c2ccc(-c3ccc(F)cc3)nc2)c(=O)c1Br	248
O=C(/C=C/c1ccc2ccccc2c1)NCC1(c2ccc(-c3ccccc3)cc2)CCOCC1	1520
Nc1nc(N)c2c(ccc3c2ccn3Cc2ccccc2)n1	3.2
COc1ccc(CNCC2CCC(CNCCc3ccccc3)CC2)cc1Cl (centres undefined)	789
Cc1cc(-c2cc(Cl)ccc2Cl)no1	168
Nc1ncc(-c2cccc(OCc3ccccc3)c2)cc1-c1nnc2ccc(Cl)nn12	1430
COc1cc(Cc2cnc(N)nc2N)cc(OCCCCc2nnn[nH]2)c1OC	286
CC(=NNC(S)=Nc1ccccc1Cl)c1ccccn1	80.3

Structure (SMILES)	XC50 [nM]
CCOc1cccc(C(=O)Nc2cccc(CN3CCCN(Cc4ccc(O)cc4)CC3)c2)c1	824
O=C(N[C@@H](CC1CCCCC1)C(=O)NCc1cccc2ccccc12)c1ccc(O)c(-c2ccc(Cl)c(Cl)c2)c1	216
N=C(N)NC(=O)Nc1cc(Cl)c(Br)c(Cl)c1	469
CS(=O)(=O)c1ccccc1CNC(=O)c1cccc(-c2ccc(-c3nc4cc(C(F)(F)F)ccc4[nH]3)cc2)c1	809
CCCN(CC1CC1)c1ncc(-c2cccc(CNCCC3CCCN3C)c2)cn1 (centres undefined)	749
CCc1nc(N)nc(N)c1CCCOc1ccccc1Cl	105
Cc1cc2cc(NC(=O)Nc3ccnc4ccccc34)ccc2n1C	1090
O=C(/C=C/c1ccc(Cl)c(Cl)c1)N1CCC(CN2CCC(c3c[nH]c4ccncc34)CC2)CC1	733
CC1CCCN(Cc2c(O)ccc3c(O)c(-c4nc5ccccc5s4)c(=N)oc23)C1 (centres undefined)	140
CC1(C)NC(=N)N=C(NOCC=Cc2ccccc2)N1	227
COc1ccc(-c2cccc(NC(=O)c3ccc(F)cc3)c2)cc1CN1CCCN(C)CC1	833
CC(C)CNCc1cccc(-c2cccc(CN(CCCN3CCN(C)CC3)C(=O)CCC3CCCC3)c2)c1	624
COc1cc2ncnc(Nc3ccc(OCc4ccccc4Br)c(OC)c3)c2cc1OC	427
COc1ccc(NC(=O)Nc2cccc(-c3cccc(-c4nc5ccccc5[nH]4)c3)c2)cc1	309
CC1CCN(Cc2c(O)ccc3c(CN4CCC(C)CC4)c(O)ccc23)CC1	133
CCCC(C(=O)OCCNC)(c1ccccc1)c1ccccc1	889
O=C(O[C@@H]1CN[C@H](C#Cc2cc3c(Nc4ccc5c(cnn5Cc5ccccc5)c4)ncnc3s2)C1)N1CCCC1	424
CC1(C)CCC(C)(C)c2c1ccc(C1CCN(CCCCNC(=O)c3ccc(-c4ccc(C#N)cc4)cc3)CC1)c2OCC(N)=O	421
CC(CN)OCn1cnc2c(N)ncnc21 (centres undefined)	231
CCCC1CCNC(C(O)c2ccnc3ccc(OC)cc23)C1 (centres undefined)	426
CC(C)(C)c1ccc(NC(=O)c2cccc(CN3CCCN(CC4CCCCC4)CC3)c2)cc1	737
CCOC(=O)c1c(C)n(-c2ccc(Cl)cc2)c2ccc(OC(=O)C=Cc3ccccc3)cc12	698
COc1cc(-c2nnc(SCC(=O)Nc3cc(C)on3)n2C)cc(OC)c1O	177
O=C(NC1CCN(Cc2ccc3c(c2)OCCO3)CC1)c1ccc(-c2cccc(C(F)(F)F)c2)s1	1830
Cc1cc(Nc2ccc3c(c2)CCC3)n2ncnc2n1	967

Structure (SMILES)	XC50 [nM]
O=S(=O)(NCCN1CCCC1)c1ccc(-c2ccc(CNC3Cc4ccccc4C3)cc2)s1	590
COc1cc(Cc2cnc(N)nc2N)cc(OCCCN2C(=O)c3ccccc3C2=O)c1OC	985
Cc1nc(-c2ccc(-c3ccc(NC(=O)Nc4ccc(I)c(OCCN(C)C)c4)cc3)c(C)c2)no1	372
Cc1cc(Br)cnc1CCCCNc1cc(=O)c2ccccc2[nH]1	1160
O=S(=O)(c1ccc(OCc2ccc(Cl)cc2)cc1)c1cc2c(c(-c3ccc(F)cc3)c1)CCN(CC1CC1)CC2	1120
COc1cc(OC)cc(C(=O)Nc2nc(-c3ccccn3)cs2)c1	561
CN1CCC(COC(=O)C(O)(c2ccccc2)c2ccccc2)C1 (centres undefined) [TRICLAZATE]	997
CC1CCc2c(C(=O)Nc3c(F)cc(F)cc3Br)csc2C1 (centres undefined)	752
Nc1ncc(-c2cccc(F)c2)cc1-c1nc2cc(F)ccc2[nH]1	175
CC(C)CN(C)Cc1ccc(-c2ccc(-c3nc4ccccc4[nH]3)s2)cc1	752
O=c1n(CC2CCCCC2)c2cc(Cl)cc(OCCNc3ccncc3)c2n1CC1CCCCC1	593
COc1ccc(OC)c2c1CCN(CCN1CCC(C(=O)Nc3ccc(C(=O)Nc4ccc(Cl)cc4)cc3)CC1)C2	582
O=C(Nc1cccc(-c2ccc(-c3nc4cc(F)ccc4[nH]3)cc2)c1)c1csnn1	278
Cn1cc(-c2ccnc3[nH]c(-c4cccc(CNC5CCC(O)CC5)c4)cc23)cn1 (centres undefined)	903
O=C(c1cccc(-c2cccc(-c3nc4cc(C(F)(F)F)ccc4[nH]3)c2)c1)N1CCCCC1CN1CCC(O)C1 (centres undefined)	279
CCCCSc1nc2c(c(=O)n1Cc1ccco1)C1(CCCCC1)Cc1ccccc1-2	958
CCCc1cc(=O)[nH]c(-n2nc(C)cc2NC(=O)c2cc3ccccc3o2)n1	1110
COc1ccccc1-n1c(SCC(=O)c2ccc3c(c2)CC(=O)N3C)nnc1-c1cccs1	963
COc1ccc2c(c1C1CCN(CCCCNC(=O)c3ccc(NC(=O)c4ccc(Cl)cc4)cc3)CC1)CCCC2	341
Cc1cccc(C)c1CNc1ccnc2cc(Br)ccc12	172
COc1cccc(-c2ccc(C(=O)NCC3CCCN(Cc4cccc(C(F)(F)F)c4)C3)s2)c1 (centres undefined)	1140
FC(F)(F)c1cccc(CNCC2CCN(Cc3ccc4c(c3)OCO4)CC2)c1	725
COc1ccc(C(=O)CCC(=O)N(CCC2CCCN2C)Cc2ccc(-c3ccc(CNCCc4ccc(S(C)(=O)=O)cc4)cn3)cc2)cc1F (centres undefined)	874
CC(C)(C)c1ccc(OCCCON2C(=N)N=C(N)NC2(C)C)c(C(C)(C)C)c1	3.2
C#CCOc1ccc2ccccc2c1CNCCCCCCNCc1c(OCC#C)ccc2ccccc12	780

Structure (SMILES)	XC50 [nM]
CC[C@H]1CN2CC[C@H]1C[C@@H]2[C@@H](O)c1ccnc2ccc(OC)cc12	119
CCOc1cc(C)ccc1C1CCN(CCCCNC(=O)c2ccc(-c3ccc(Cl)cn3)cc2)CC1	1610
CCN(CC)CCCC(C)Nc1ccnc2[nH]c3ccccc3c12 (centres undefined)	1770
CCCCCCCSc1ccc(CC(C)NCC(O)c2cccc(Cl)c2)cc1 (centres undefined)	178
CCNc1cc(C(=O)N[C@@H](Cc2ccccc2)[C@H](O)CNC2(C)CCCCC2)cc(N2CCCCS2(=O)=O)c1	156
Cc1cc(=O)c(-c2ccc(Oc3cccc(Cl)c3)cc2)c(C)[nH]1	602
Cc1ccc(NC(=O)c2ccc3nccnc3c2)cc1OC1CCN(Cc2ccc(F)cc2)CC1	1010
COc1cc(C=CC(=O)N2CCN(Cc3cccc(C)c3)CC2)ccc1OCc1c(C)noc1C	1030
O=C(c1cccc(-c2noc(C(F)(F)F)n2)c1)N1CCN(c2nsc3ccccc23)CC1	145
c1ccc2[nH]c(-c3ccc(-c4ccc(CNCCc5ccncc5)cc4)s3)nc2c1	158
N#CC1(CCCNCCc2ccc(O)cc2)CCCc2c(O)cccc21 (centres undefined)	763
COc1ccc(CC(C)CON2C(N)=NC(N)=NC2(C)C)cc1 (centres undefined)	3.2
O=S(=O)(Nc1cccc(CCN2CCC(N3CCCCC3)CC2)c1)c1ccccc1C(F)(F)F	1150
CCN1CCN(C(=O)NC(C(=O)N(C)Cc2ccc(-c3ccc(C(F)(F)F)cc3)cc2)c2cccs2)C(=O)C1=O (centres undefined)	356
Cc1cc(Nc2cccc(Cl)c2)nc2ccc(NC(=O)c3ccc(=O)[nH]c3)cc12	995
COc1ccc(-c2c(C(F)(F)F)nn(C)c2NC(=O)Nc2ccc(F)cc2F)cc1	797
CCc1ccc(CN2CCC(CNC(=O)c3cc(-c4cccc(F)c4)cs3)C2)cc1 (centres undefined)	1360
Cn1c(NC2CCN(CC3CCN(C(=O)/C=C/c4ccc(Cl)c(Cl)c4)CC3)CC2)nc2ccccc21	148
CN(Cc1cccc(O)c1)C1CCN(c2cc(NC(=O)c3ccc(F)cc3)ccn2)CC1	956
Cc1ccc(C2CCN(CCCCNC(=O)c3ccc(NC(=O)c4ccc(Cl)cc4)cc3)CC2)c(OCC2CC2)c1	887
CCN1CCN(c2cc(C)c3cc(NC(=O)c4ccc([N+](=O)[O-])c(C)c4)ccc3n2)CC1	654
Nc1ccc2nc(C=Cc3ccc(Cl)cc3)[nH]c2c1	941
COc1cc(C)ccc1S(=O)(=O)N1CCCCC(c2ccc(C(F)(F)F)cc2)=N1	775
O=C(NCCCCN1CCC(c2ccc3c(c2OCc2ccccn2)CCCC3)CC1)c1ccc(NC(=O)c2ccc(Cl)cc2)cc1	803
